Source: patent US11999759B2, “Boronic acid derivatives and therapeutic uses thereof” (Qpex Biopharma, Inc., priority 2016, dated 2024)

Legend:
SHV-12 = SHV-12 (Klebsiella pneumoniae, UniProt P0AD64, E235K/G234S/L31Q); test: Inhibition of nitrocefin cleavage by purified SHV-12; assay type: biochemical; conditions: nitrocefin reporter substrate; 10 min preincubation at room temperature; read-out: Ki (SHV-12, NCF)
Experimental: (§1) Ki values of inhibition of purified class A, C and D enzymes were determined spectrophotometrically using nitrocefin as reporter substrate. Purified enzymes were mixed with various concentrations of inhibitors in reaction buffer and incubated for 10 min at room temperature. Nitrocefin was added and substrate cleavage profiles were recorded at 490 nm every 10 sec for 10 min.

OXA-23 = OXA-23 (Acinetobacter baumannii, UniProt Q9L4P2); test: Inhibition of nitrocefin cleavage by purified OXA-23; assay type: biochemical; conditions: nitrocefin reporter substrate; 10 min preincubation at room temperature; read-out: Ki (OXA-23, NCF)
Chain of OXA-23 (Q9L4P2 18-273): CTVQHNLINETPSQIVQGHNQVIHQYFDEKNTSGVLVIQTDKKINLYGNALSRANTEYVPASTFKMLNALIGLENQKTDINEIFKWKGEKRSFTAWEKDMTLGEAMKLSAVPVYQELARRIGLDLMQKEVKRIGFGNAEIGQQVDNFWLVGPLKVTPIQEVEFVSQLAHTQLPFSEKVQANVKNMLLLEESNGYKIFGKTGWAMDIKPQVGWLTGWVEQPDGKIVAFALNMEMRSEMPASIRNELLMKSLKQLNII
Experimental: as §1, with “min. These experiments confirmed that the described compounds are inhibitors with a broad-spectrum of activity towards various β-lactamases.” for “min.”

NDM-1 = NDM-1 (Klebsiella pneumoniae, UniProt C7C422); test: Inhibition of imipenem cleavage by purified NDM-1; assay type: biochemical; conditions: imipenem reporter substrate; 37° C.; read-out: Ki (NDM-1, IMI)
Chain of NDM-1 (C7C422 29-270, looked up, species assumed): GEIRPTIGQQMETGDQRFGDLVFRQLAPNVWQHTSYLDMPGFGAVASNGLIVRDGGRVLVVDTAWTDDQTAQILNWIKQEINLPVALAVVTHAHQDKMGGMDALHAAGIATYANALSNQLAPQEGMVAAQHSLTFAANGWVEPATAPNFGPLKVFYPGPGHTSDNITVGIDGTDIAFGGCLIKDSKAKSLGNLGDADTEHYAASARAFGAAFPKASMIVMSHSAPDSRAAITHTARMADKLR
Experimental: Purified enzymes were mixed with various concentrations of inhibitors in reaction buffer and incubated for 10 min at room temperature. Imipenem was added and substrate cleavage profiles were recorded at 294 nm every 30 seconds for 30 minutes at 37° C.

CTX-M-14 = CTX-M-14 (Escherichia coli, UniProt Q9L5C7); test: Inhibition of nitrocefin cleavage by purified CTX-M-14; assay type: biochemical; conditions: nitrocefin reporter substrate; 10 min preincubation at room temperature; read-out: Ki (CTX-M-14, NCF)
Chain of CTX-M-14 (Q9L5C7 29-291, species assumed): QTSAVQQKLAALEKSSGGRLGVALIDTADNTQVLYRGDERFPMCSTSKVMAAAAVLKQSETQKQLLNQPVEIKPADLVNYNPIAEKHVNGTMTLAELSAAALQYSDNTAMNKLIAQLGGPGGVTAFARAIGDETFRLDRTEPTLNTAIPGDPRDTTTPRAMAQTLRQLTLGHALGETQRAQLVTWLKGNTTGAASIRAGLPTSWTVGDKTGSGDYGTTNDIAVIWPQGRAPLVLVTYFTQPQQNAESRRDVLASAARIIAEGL
Experimental: as §1

Pa-AmpC = Pa-AmpC (Pseudomonas aeruginosa, UniProt P24735); test: biochemical; conditions: nitrocefin reporter substrate; 10 min preincubation at room temperature; read-out: Ki (Pa-AmpC, NCF)
Chain of Pa-AmpC (P24735 27-397): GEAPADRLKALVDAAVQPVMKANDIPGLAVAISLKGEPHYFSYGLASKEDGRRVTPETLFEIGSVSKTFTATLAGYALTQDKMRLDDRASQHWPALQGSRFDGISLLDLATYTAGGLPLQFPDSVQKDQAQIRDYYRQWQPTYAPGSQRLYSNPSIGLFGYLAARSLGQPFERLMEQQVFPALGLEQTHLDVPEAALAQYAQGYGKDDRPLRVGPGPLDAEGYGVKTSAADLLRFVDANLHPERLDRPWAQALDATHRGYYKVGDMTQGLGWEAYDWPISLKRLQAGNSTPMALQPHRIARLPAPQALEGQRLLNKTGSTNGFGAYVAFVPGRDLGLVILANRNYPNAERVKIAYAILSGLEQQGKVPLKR
Experimental: as §1

P99 = P99 (Enterobacter cloacae, UniProt P05364); test: biochemical; conditions: nitrocefin reporter substrate; 10 min preincubation at room temperature; read-out: Ki (P99, NCF)
Chain of P99 (P05364 21-381): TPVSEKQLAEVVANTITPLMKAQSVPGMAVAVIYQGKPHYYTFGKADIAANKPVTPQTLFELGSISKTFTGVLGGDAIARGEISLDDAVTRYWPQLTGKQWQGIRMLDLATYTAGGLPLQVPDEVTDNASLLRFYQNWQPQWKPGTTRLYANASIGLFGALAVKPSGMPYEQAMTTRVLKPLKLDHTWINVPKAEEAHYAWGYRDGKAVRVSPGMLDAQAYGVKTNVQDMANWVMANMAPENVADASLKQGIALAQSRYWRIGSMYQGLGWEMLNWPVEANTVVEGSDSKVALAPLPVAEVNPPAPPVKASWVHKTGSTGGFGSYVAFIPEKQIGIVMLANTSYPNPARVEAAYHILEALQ
Experimental: as §1

VIM-1 = VIM-1 (Pseudomonas aeruginosa, UniProt A0A0F7KYQ8); test: Inhibition of nitrocefin cleavage by purified VIM-1; assay type: biochemical; conditions: nitrocefin reporter substrate; 10 min preincubation at room temperature; read-out: Ki (VIM-1, NCF)
KPC-2 = KPC-2 (Klebsiella pneumoniae, UniProt Q9F663); test: Inhibition of nitrocefin cleavage by purified KPC-2; assay type: biochemical; conditions: nitrocefin reporter substrate; 10 min preincubation at room temperature; read-out: Ki (KPC-2, NCF)
Chain of KPC-2 (Q9F663 25-293 limits assumed): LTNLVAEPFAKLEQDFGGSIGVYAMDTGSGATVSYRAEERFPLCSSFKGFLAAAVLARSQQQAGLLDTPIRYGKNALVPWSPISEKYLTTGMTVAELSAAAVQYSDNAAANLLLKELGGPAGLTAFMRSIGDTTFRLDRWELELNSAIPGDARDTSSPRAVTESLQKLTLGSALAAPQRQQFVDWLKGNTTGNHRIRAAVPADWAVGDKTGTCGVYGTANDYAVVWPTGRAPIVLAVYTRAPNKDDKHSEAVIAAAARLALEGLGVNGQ
Experimental: as §1, with “min. These experiments confirmed that the described compounds are inhibitors with a broad-spectrum of activity towards various β-lactamases.” for “min.”

OXA-48 = OXA-48 (Klebsiella pneumoniae, UniProt Q6XEC0); test: Inhibition of nitrocefin cleavage by purified OXA-48; assay type: biochemical; conditions: nitrocefin reporter substrate; 10 min preincubation at room temperature; read-out: Ki (OXA-48, NCF)
Chain of OXA-48 (Q6XEC0 23-265, looked up): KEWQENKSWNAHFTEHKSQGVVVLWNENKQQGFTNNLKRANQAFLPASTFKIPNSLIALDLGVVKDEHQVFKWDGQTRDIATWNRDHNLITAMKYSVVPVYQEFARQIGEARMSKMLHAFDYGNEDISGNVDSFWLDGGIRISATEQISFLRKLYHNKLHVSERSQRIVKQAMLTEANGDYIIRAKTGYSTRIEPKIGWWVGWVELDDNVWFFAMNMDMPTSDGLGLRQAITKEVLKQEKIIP
Experimental: as §1, with “min. These experiments confirmed that the described compounds are inhibitors with a broad-spectrum of activity towards various β-lactamases.” for “min.”

IMP-1 = IMP-1 (Serratia marcescens, UniProt P52699); test: Inhibition of imipenem cleavage by purified IMP-1; assay type: biochemical; conditions: imipenem reporter substrate; 37° C.; read-out: Ki (IMP-1, IMI)
Chain of IMP-1 (P52699 19-246, looked up, species assumed): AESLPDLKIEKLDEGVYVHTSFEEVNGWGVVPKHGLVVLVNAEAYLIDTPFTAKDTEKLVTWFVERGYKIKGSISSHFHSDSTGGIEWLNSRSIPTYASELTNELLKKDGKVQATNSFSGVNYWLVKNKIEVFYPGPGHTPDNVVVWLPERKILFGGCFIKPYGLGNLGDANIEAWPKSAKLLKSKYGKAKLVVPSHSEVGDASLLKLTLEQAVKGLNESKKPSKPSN
Experimental: Ki values of inhibition of purified class B enzymes NDM-1 and IMP-1 were determined spectrophotometrically using imipenem as reporter substrate. Purified enzymes were mixed with various concentrations of inhibitors in reaction buffer and incubated for 10 min at room temperature. Imipenem was added and substrate cleavage profiles were recorded at 294 nm every 30 seconds for 30 minutes at 37° C. These experiments further confirmed that the described compounds have the ability to inhibit carbapenemase activity of metallo-beta-lactamases.

[1] = Stability of compound 13 prodrugs in human serum; assay type: in vitro ADME; conditions: 37° C., prodrug 50.0 μg/mL
Experimental: The rate of hydrolysis for several prodrugs of 13 was evaluated in vitro by measuring their stability in human serum and human liver microsomes. All serum stability experiments were conducted by aliquoting 10 μL of test compound at 500 μg/mL (10× final concentration) in 95:5 water:acetonitrile v/v into 1.5 mL Eppendorf tubes. […] The tubes were then warmed to 37° C. in a water bath along with human serum (Bioreclamations) in a separate tube. Serum esterase activity for each lot of serum used was established by assaying an unrelated ester prodrug as a control. To initiate the reaction, 90 μL of serum was added to tubes for all timepoints using a repeating-tip pipette, thereby bringing the final concentration of test compound to 50 μg/mL and the final concentration of acetonitrile to 0.5% v/v. At each timepoint, the reaction was halted and serum proteins precipitated through the addition of an equal volume of cold acetonitrile containing 25 μg/mL diclofenac as an internal standard. […] Sample analysis for serum stability experiments was conducted using an Agilent 1100 binary pump HPLC equipped with a diode array detector set to monitor absorbance at 286 nm (8 nm bandwidth). […] The samples were analyzed together with appropriate blanks in order to ensure specificity. […] The rate of activation was determined by monitoring the concentration of test compound as follows. The peak area for the analyte was divided by the peak area for the internal standard to give an area ratio. The area ratio for each timepoint was divided by the area ratio for timepoint 0 to give the percent remaining at each timepoint. The natural logarithm of the percent remaining versus time was plotted using Microsoft Excel and fitted to a linear trendline.

[2] = Stability of compound 13 prodrugs in human liver microsomes (HLM); assay type: in vitro ADME; conditions: 0.500 mg/mL human liver microsomes, no cofactors, prodrug 1.00 μM; for half-life at 1 μM: pH 7.4, read-out: Estimated half-life (minutes) (rounded to nearest integer value)
Experimental: In the meantime, a 20.0 mg/mL solution of human liver microsomes (XenoTech, LLC) was diluted to 1.00 mg/mL (2× final concentration). Esterase activity for each lot of microsomes used was established by assaying an unrelated ester prodrug as a control. Both the Eppendorfs for each timepoint and the diluted liver microsomes were then warmed to 37° C. in a water bath. No cofactors (e.g. NADPH) were added to ensure that only hydrolytic reactions as opposed to reactions mediated by other cofactor-dependent enzymes (e.g. CYP450 enzymes) would take place. To initiate the reaction, 50 μL of diluted human liver microsomes was added to tubes for all timepoints using a repeating-tip pipette, thereby bringing the final concentration of test compound to 1.00 μM and the final concentration of human liver microsomes to 0.500 mg/mL. At each timepoint, the reaction was halted and proteins precipitated through the addition of 200 μL of 10:45:45 water:methanol:acetonitrile v/v/v containing an unrelated ester prodrug at 250 ng/mL as an internal standard. […] Sample analysis for microsome stability experiments was conducted using a 20.0 μL injection on a LEAP PAL autosampler with Agilent 1100 binary pump HPLC coupled to an AB Sciex 3200 QTrap mass spectrometer. […] Detection was in positive mode; source parameters and parent-daughter ion selection criteria were chosen as needed for each compound to achieve an appropriate limit of detection and signal-to-noise ratio. The samples were analyzed together with appropriate blanks in order to ensure specificity. The rate of hydrolysis for each prodrug was determined by monitoring the concentration of test compound as follows. The peak area for the analyte was divided by the peak area for the internal standard to give an area ratio. The area ratio for each of the two replicates at each timepoint was divided by the area ratio for timepoint 0 to give the percent remaining at each timepoint. The natural logarithm of the percent remaining versus time for all replicates was plotted using Microsoft Excel and fitted to a linear trendline.

Chain of SHV-12 (P0AD64 22-286 L31Q/G234S/E235K): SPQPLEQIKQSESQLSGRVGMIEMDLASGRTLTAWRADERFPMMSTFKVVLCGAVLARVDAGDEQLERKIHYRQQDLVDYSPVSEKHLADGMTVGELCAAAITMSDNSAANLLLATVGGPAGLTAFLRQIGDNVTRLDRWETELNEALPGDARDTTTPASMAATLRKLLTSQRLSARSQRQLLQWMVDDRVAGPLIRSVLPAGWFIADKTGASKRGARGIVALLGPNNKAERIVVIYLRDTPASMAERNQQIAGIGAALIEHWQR

Row | Structure (SMILES) | Ki (SHV-12) [nM] | Ki (OXA-23) [nM] | Ki (NDM-1) [nM] | Ki (CTX-M-14) [nM] | Ki (Pa-AmpC) [nM] | Ki (P99) [nM] | Ki (VIM-1) [nM] | Ki (KPC-2) [nM] | Ki (OXA-48) [nM] | Ki (IMP-1) [nM] | % of initial area ratio at t = 0 min [1] [%] | % of initial area ratio at t = 5 min [1] [%] | % of initial area ratio at t = 10 min [1] [%] | % of initial area ratio at t = 30 min [1] [%] | Average % of initial area ratio at t = 0 min [2] [%] | Average % of initial area ratio at t = 5 min [2] [%] | Average % of initial area ratio at t = 10 min [2] [%] | Average % of initial area ratio at t = 30 min [2] [%] | half-life at 1 μM [2] [min]
1 | COc1ccc2c(c1C(=O)O)OB(O)C1C2[C@H]2CC[C@@H]1C2 (stereo partly drawn) [Compound 7, (7R,10S)-6-hydroxy-3-methoxy-6a,7,8,9,10,10a-hexahydro-6H-7,10-methanodibenzo[c,e][1,2]oxaborinine-4-carboxylic acid] | 100 to 1000 | < 100 | < 100 | < 100 | < 100 | < 100 | < 100 | < 100 | < 100 | < 100 |  |  |  |  |  |  |  |  | 
2 | O=C(OCOC(=O)c1c(F)ccc2c1OB(O)[C@@H]1C[C@H]21)OC1COC1 [Compound 32, Oxetan-3-yloxycarbonyloxymethyl (1aR,7bS)-5-fluoro-2-hydroxy-1a,7b-dihydro-1H-cyclopropa[c][1,2]benzoxaborinine-4-carboxylate] |  |  |  |  |  |  |  |  |  |  | 100 | 86.8 | 77.2 | 38.7 |  |  |  |  | 
3 | O=C(OCOC(=O)C1CCOCC1)c1c(F)ccc2c1OB(O)[C@@H]1C[C@H]21 [Compound 39, Tetrahydropyran-4-carbonyloxymethyl (1aR,7bS)-5-fluoro-2-hydroxy-1a,7b-dihydro-1H-cyclopropa[c][1,2]benzoxaborinine-4-carboxylate] |  |  |  |  |  |  |  |  |  |  | 100 | 69.3 | 59.4 | 41.1 |  |  |  |  | 
4 | Cc1oc(=O)oc1COC(=O)c1c(F)ccc2c1OB(O)[C@@H]1C[C@H]21 [Compound 33, (5-Methyl-2-oxo-1,3-dioxol-4-yl)methyl (1aR,7bS)-5-fluoro-2-hydroxy-1a,7b-dihydro-1H-cyclopropa[c][1,2]benzoxaborinine-4-carboxylate] |  |  |  |  |  |  |  |  |  |  | 100 | 48.4 | 15.4 | 0 |  |  |  |  | 
5 | O=C(O)c1cccc2c1OB(O)C1CC21 (stereo not shown) [Compound 10, 2-Hydroxy-1a,7b-dihydro-1H-cyclopropa[c][1,2]benzoxaborinine-4-carboxylic acid] | < 100 | < 100 | < 100 | < 100 | < 100 | < 100 | < 100 | < 100 | < 100 | 100 to 1000 |  |  |  |  |  |  |  |  | 
6 | COc1ccc2c(c1C(=O)O)OB(O)CC21CC1 [Compound 11, 2-hydroxy-7-methoxy-spiro[3H-1,2-benzoxaborinine-4,1′-cyclopropane]-8-carboxylic acid] | < 100 | < 100 | < 100 | < 100 | < 100 | < 100 | 100 to 1000 | < 100 | < 100 | 100 to 1000 |  |  |  |  |  |  |  |  | 
7 | COc1ccc2c(c1C(=O)O)OB(O)C1C2[C@H]2C=C[C@@H]1C2 (stereo partly drawn) [Compound 6, (7R,10R)-6-hydroxy-3-methoxy-6a,7,10,10a-tetrahydro-6H-7,10-methanodibenzo[c,e][1,2]oxaborinine-4-carboxylic acid] | 100 to 1000 | 100 to 1000 | > 1000 | > 1000 | < 100 | < 100 | 100 to 1000 | < 100 | < 100 | > 1000 |  |  |  |  |  |  |  |  | 
8 | COCC(=O)OCOC(=O)c1c(F)ccc2c1OB(O)[C@@H]1C[C@H]21 [Compound 43, (2-Methoxyacetyl)oxymethyl (1aR,7bS)-5-fluoro-2-hydroxy-1a,7b-dihydro-1H-cyclopropa[c][1,2]benzoxaborinine-4-carboxylate] |  |  |  |  |  |  |  |  |  |  | 100 | 58.6 | 34.5 | 2.9 | 100 | 64.4 | 44.6 | 0.6 | 4
9 | CC(=O)OCC(=O)OCOC(=O)c1c(F)ccc2c1OB(O)[C@@H]1C[C@H]21 [Compound 42, (2-Acetoxyacetyl)oxymethyl (1aR,7bS)-5-fluoro-2-hydroxy-1a,7b-dihydro-1H-cyclopropa[c][1,2]benzoxaborinine-4-carboxylate] |  |  |  |  |  |  |  |  |  |  | 100 | 29.1 | 8.1 | 0 | 100 | 27.1 | 10.3 | 0.4 | 4
